For series [1], the target named is human BACE1 (Homo sapiens, UniProt P56817). The series can be described thus: Fluorescent kinetic assay, BACE-1 (Example 114). It counts as biochemical. The procedure:
Evaluation of BACE-1 Binding Affinity of Test Compounds
Fluorescent Kinetic Assays
Dilution and mixing steps: total reaction volume: 100 μL
100 μM substrate dilution in 1×PBS was prepared, and
Fluorescence Readings: Readings at λex 320 nm and εem 420 nm are taken every 40 sec for 30 min at room temperature and the linear slope for substrate cleavage rate (vi) determined.

Where [2] appears, read: 10 nM human BACE1, 25 μM substrate WABC-6, 50 mM Na-Acetate pH 4.5, room temperature, read-out: BACE-1 (IC50 μM).

SMILES strings stand for the structures. Like-named read-outs stand apart in the source and are kept apart here.

Sequence of human BACE1 (P56817 46-501): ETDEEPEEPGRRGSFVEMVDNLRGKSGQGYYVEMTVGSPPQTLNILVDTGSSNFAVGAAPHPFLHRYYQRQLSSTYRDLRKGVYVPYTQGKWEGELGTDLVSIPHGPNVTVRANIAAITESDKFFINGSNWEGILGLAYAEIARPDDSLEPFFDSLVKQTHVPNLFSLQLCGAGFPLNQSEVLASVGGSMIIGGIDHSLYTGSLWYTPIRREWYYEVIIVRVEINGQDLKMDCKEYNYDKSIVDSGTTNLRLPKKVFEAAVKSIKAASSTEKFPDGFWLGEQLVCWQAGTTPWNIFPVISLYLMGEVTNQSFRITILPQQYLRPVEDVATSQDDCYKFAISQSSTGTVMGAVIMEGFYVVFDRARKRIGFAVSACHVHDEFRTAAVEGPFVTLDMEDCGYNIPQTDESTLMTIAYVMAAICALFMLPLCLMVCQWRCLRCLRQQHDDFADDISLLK

`CCc1cc(C2(c3cccc(OCC4CC4)c3)N=C(N)N(C)C2=O)cc(CC)n1` (stereo not drawn) [Example 72] displayed a melting point of 68 to 70 °C. The compound further returned an IC50 in series [1] of 0.11 to 1 µM.
On the same counts, the results for `Cc1cc(C2(c3cccc(-c4cccnc4)c3)N=C(N)N(C)C2=O)cc(C)n1` (stereo not drawn) [Example 74] are 176 to 180 °C and 0.11 to 1 µM.
The matching figures for `Cc1cc(C2(c3cccc(-c4cc(F)ccc4F)c3)N=C(N)N(C)C2=O)cc(C)n1` (stereo not drawn) [Example 76]: 184 to 190 °C and 0.11 to 1 µM.
In turn, `CCc1cc(C2(c3cccc(-c4cccnc4)c3)N=C(N)N(C)C2=O)cc(C)n1` (stereo not drawn) [Example 83] registered a melting point of 135 to 139 °C. In addition, in series [1] (setting [2]), the IC50 was 0.11 to 1 µM.
As to `CCc1cc(C2(c3cccc(-c4cc(F)ccc4F)c3)N=C(N)N(C)C2=O)cc(C)n1` (stereo not drawn) [Example 85], the melting point was in the range of 114 to 117 °C. Also, the IC50 in series [1] (setting [2]) lay within 0.11 to 1 µM.
The matching figures for `CCc1cc(C2(c3cccc(-c4cnccn4)c3)N=C(N)N(C)C2=O)cc(C)n1` (stereo not drawn) [Example 86]: 130 to 134 °C and 0.11 to 1 µM.
The matching figures for `CN1C(=O)C(c2cccc(-c3cccnc3)c2)(c2ccnc(Cl)c2)N=C1N` (stereo not drawn) [Example 89]: 223 to 225 °C and 0.01 to 0.1 µM.
Take `CCc1cc(C2(c3cccc(-c4cccnc4)c3)N=C(N)N(C)C2=O)cc(CC)n1` (stereo not drawn) [Example 90]: the melting point lay within 152 to 157 °C. The IC50 in series [1] (setting [2]) is 0.01 to 0.1 µM.
The matching figures for `CCc1cc(C2(c3cccc(-c4cc(F)ccc4F)c3)N=C(N)N(C)C2=O)cc(CC)n1` (stereo not drawn) [Example 92]: 107 to 112 °C and 0.11 to 1 µM.
The matching figures for `CCc1cc(C2(c3ccc(F)c(-c4cncc(F)c4)c3)N=C(N)N(C)C2=O)cc(CC)n1` (stereo not drawn) [Example 104, 2-Amino-5-(2,6-diethyl-pyridin-4-yl)-5-[4-fluoro-3-(5-fluoropyridin-3-yl)-phenyl]-3-methyl-3,5-dihydro-imidazol-4-one]: 155 to 157 °C and 0.01 to 0.1 µM.
The matching figures for `CN1C(=O)C(c2ccc(OC(F)F)cc2)(c2cccnc2)N=C1N` (stereo not drawn) [Example 111, 2-amino-5-[4-(difluoromethoxy)phenyl]-3-methyl-5-pyridin-3-yl-3,5-dihydro-4H-imidazol-4-one]: 173 to 175 °C and > 1 µM.
Compound `CN1C(=O)C(c2ccncc2)(c2ccc(OC(F)F)cc2)N=C1N` (stereo not drawn) [Example 112, 2-amino-5-[4-(difluoromethoxy)phenyl]-3-methyl-5-pyridin-4-yl-3,5-dihydro-4H-imidazol-4-one] showed a melting point of 193 to 195 °C. Besides, the IC50 in series [1] (setting [2]) was > 1 µM.

These data come from patent US7452885B2, “Amino-5-(6-membered)heteroarylimidazolone compounds and the use thereof for β-secretase modulation” (Wyeth, priority 2005, dated 2008).
